Experimental data reported in patent US9233957B2, “5-carbamoyl-adamantan-2-yl amide derivatives, pharmaceutically acceptable salts thereof and preparation process thereof” (SK BIOPHARMACEUTICALS CO., LTD., priority 2011, dated 2016).
Where two headings read alike, the source gives them in different places.

Key:
[1] = biological target: T1, Human 11b-HSD1 (Homo sapiens, UniProt P28845); experiment: Inhibition of cortisone-to-cortisol conversion in CHO-K1 cells over-expressing human 11b-HSD1 (HTRF cortisol assay); format: cell-based; details: CHO-K1 cells over-expressing human 11b-HSD1, 160 nM cortisone, 3 hours, 37° C.
T1 construct: expressed in transfected cells
Excerpt: (§1) cDNA (human: Accession No. U12978.2; mouse: Accession No. NM_008288.2) coding the full-length amino acid sequence of 11β-HSD1 in a human and a mouse was incorporated into pMSCVpuro (from Clontech. Co. Ltd.), a vector of expressing a mammalian cell for the production of a retrovirus, and the resulting product was introduced into a GP2-293 cell (from Clontech Co. Ltd.), a retrovirus packing cell line together with pVSV-G vector (from Clontech Co. Ltd.) by using a Lipotamine plus reagent (from Invitrogen Co. Ltd.) in accordance with the method set forth in the appendix (by using HTRF cortisol assay kit from Cisbio assays Co., Ltd., catalog No. 62CO2PEB) and stabilized for 48 hours. Thereafter, viruses being obtained from those cells were used to infect CHO-K1 cell (from Korean Cell Line Bank, KCLB No. 10061) and in 24 hours, the cells were treated with 10 μg/ml pumycin (from Sigma Co. Ltd.) for two weeks to produce a stabilized cell system wherein each 11β-HSD1 in humans or in mice was over-expressed. When the cells being maintained, 5 μg/ml of puromycin was put into the medium and used (RPMI (Gibco), 37° C.). • Reference material: The EMBO Journal (2008) 27, 642-653
(§2) The obtained cells with 11b-HSD1 in a human and a mouse being over-expressed were sub-cultured in a 96-well plate with a cell number being 3×10^4 cells per well and stabilized for 24 hours [RPMI (Gibco), at 37° C., as being used in 5 days after thawing]. After a medium as diluted with DMSO including 160 nM of cortisone (from Sigma Co. Ltd.) and a test compound at a different concentration was put into each well in an amount of 200 ul, the well was cultured in a cell cultivator at 37° C. for 3 hours. 10 ul of the cultured solution was put into a 384 well plate and the amount of cortisol as generated was measured using a cortisol kit (from Cisbio international Co. Ltd, HTRF assay) in accordance with the method set forth in the appended manual.
(§3) As a control group, 160 nM of cortisone and 1% of DMSO were put into a corresponding well. The ground value was obtained from a well including only 160 nM of cortisone and 1% of DMSO without cells just like the control group. The calculation for a % inhibition level was made following the manual as appended. • Reference material: The Journal of Steroid Biochemistry and Molecular Biology, Volume 104, Issues 3-5, May 2007, Pages 123-129 • Bioorganic & Medicinal Chemistry Letters Volume 19, Issue 10, 15 May 2009, Pages 2674-2678
(§4) Like the analyzing method as stated above, the efficacy of inhibiting 11b-HSD1 was calculated as IC50 and the results are shown in Table 1: […]

[2] = biological target: T2, Mouse 11b-HSD1 (Mus musculus, UniProt P50172); experiment: Inhibition of cortisone-to-cortisol conversion in CHO-K1 cells over-expressing mouse 11b-HSD1 (HTRF cortisol assay); format: cell-based; details: CHO-K1 cells over-expressing mouse 11b-HSD1, 160 nM cortisone, 3 hours, 37° C.
T2 construct: expressed in transfected cells
Excerpt: as §1, §2, §3, §4

[3] = biological target: T3, 11b-HSD1 (Mus musculus, UniProt P50172); experiment: Ex vivo PD assay: 11b-HSD1 inhibition in abdominal fat and liver tissue after oral administration to mice; details: mouse C57B1/6, oral, vs vehicle group; for inhibition at 20 mg/kg: 6 hr; for inhibition at 10 mg/kg: 2 hr
T3 construct: the tissues in abdominal fat and the liver were obtained; from tissue; host or cells: abdominal fat and liver of C57Bl/6 mice
Procedure: The prepared compound was orally administered to a mouse (C57B1/6, orient 8 week old, about 25 g, male) and in a proper amount of time (2 hours, 6 hours, 12 hours, 16 hours, and 24 hours), the mouse was sacrificed and around 30 to 40 mg of the tissues in abdominal fat and the liver were obtained. To 500 ul of a medium (RPMI, gibco) including 1 μM of cortisone (from Sigma Co. Ltd.) and 400 μM of NADPH (from Sigma Co. Ltd) was added the tissue as obtained (30-40 mg), which then reacted in a cell cultivator at 37° C. for 3 hours. After 50 ul of the reacted solution was taken and diluted with DMEM medium at a volume ratio of 1/10, the amount of cortisol being generated was measured by using a cortisol kit (assay designs Co. Ltd., ELISA kit) in accordance with the method set forth in the appended manual. From the results being measured, the degree of the inhibition was obtained by the conversion in comparison with the vehicle group (vehicle: 5% DMSO+5% cremophor in dw, the amount being proportionate to the body weight, i.e., the administration was made at the same volume as the drug being introduced). • Reference material: Published Aug. 15, 2005//JEM vol. 202 no. 4 517-527 The Rockefeller University Press % inhibition={(the amount of cortisol of the vehicle group−the amount of the cortisol of the group with the compound being administered)/(the amount of cortisol of the vehicle group)}×100
According to the above analyzing method, the efficacy of inhibiting 11b-HSD1 of the test compound in the target organ was calculated as % inhibition values, which are shown in Table 2 and Table 3.

[4] = abdominal fat, read-out: 11b-HSD1 % inhibition in the fat
[5] = liver, read-out: 11b-HSD1 % inhibition in the liver

T1 sequence (P28845 whole entry): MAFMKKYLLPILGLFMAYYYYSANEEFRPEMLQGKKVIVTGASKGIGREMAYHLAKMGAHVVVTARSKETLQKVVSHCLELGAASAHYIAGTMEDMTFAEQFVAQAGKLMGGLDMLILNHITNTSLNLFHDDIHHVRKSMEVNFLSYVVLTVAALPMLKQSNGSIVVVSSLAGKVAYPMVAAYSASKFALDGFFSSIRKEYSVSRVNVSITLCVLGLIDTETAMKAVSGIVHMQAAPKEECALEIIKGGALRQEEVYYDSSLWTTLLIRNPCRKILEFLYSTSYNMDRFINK
T2 sequence (P50172 whole entry): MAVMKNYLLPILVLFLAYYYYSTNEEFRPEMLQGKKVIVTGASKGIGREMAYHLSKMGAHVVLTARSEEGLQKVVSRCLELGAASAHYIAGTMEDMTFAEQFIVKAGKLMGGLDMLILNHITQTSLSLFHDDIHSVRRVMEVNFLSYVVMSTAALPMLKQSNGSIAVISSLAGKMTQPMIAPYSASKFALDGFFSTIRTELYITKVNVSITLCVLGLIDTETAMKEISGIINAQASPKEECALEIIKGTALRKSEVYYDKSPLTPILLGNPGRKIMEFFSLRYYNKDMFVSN
T3 sequence (P50172 whole entry): as above

SMILES | IC50 [1] | IC50 [2] | inhibition at 20 mg/kg [3, 4] | inhibition at 20 mg/kg [3, 5] | inhibition at 10 mg/kg [3, 4] | inhibition at 10 mg/kg [3, 5]
NC(=O)[C@]12CC3CC(C1)[C@@H](NC(=O)c1ccc(-c4ccccc4F)o1)C(C3)C2 [Example 30, N-(5-carbamoyl-2-adamantyl)-5-(2-fluorophenyl)furan-2-carboxamide] | < 100 nM | < 100 nM | 72% | 69% | – | –
NC(=O)[C@]12CC3CC(C1)[C@@H](NC(=O)c1ccc(-c4ccccc4)s1)C(C3)C2 [Example 40, N-(5-carbamoyl-2-adamantyl)-5-phenylthiophene-2-carboxamide] | < 100 nM | < 100 nM | 63% | 38% | – | –
NC(=O)[C@]12CC3CC(C1)[C@@H](NC(=O)c1ccc(-c4ccccc4Cl)s1)C(C3)C2 [Example 43, N-(5-carbamoyl-2-adamantyl)-5-(2-chlorophenyl)thiophene-2-carboxamide] | < 100 nM | < 100 nM | 70% | 59% | – | –
Cn1c(C(=O)N[C@H]2C3CC4CC2C[C@](C(N)=O)(C4)C3)ccc1-c1ccccc1 [Example 34, N-(5-carbamoyl-2-adamantyl)-1-methyl-5-phenylpyrrole-2-carboxamide] | < 100 nM | < 100 nM | 96% | 92% | – | –
NC(=O)[C@]12CC3CC(C1)[C@@H](NC(=O)c1cccc4cccnc14)C(C3)C2 [Example 19, N-(5-carbamoyl-2-adamantyl)quinoline-8-carboxamide] | < 100 nM | < 100 nM | – | – | 51% | 50%
NC(=O)[C@]12CC3CC(C1)[C@@H](NC(=O)c1ccc(-c4ccccc4Cl)o1)C(C3)C2 [Example 27, N-(5-carbamoyl-2-adamantyl)-5-(2-chlorophenyl)furan-2-carboxamide] | < 100 nM | < 100 nM | 80% | 65% | – | –
Cn1c(C(=O)N[C@H]2C3CC4CC2C[C@](C(N)=O)(C4)C3)ccc1-c1ccccc1F [Example 39, N-(5-carbamoyl-2-adamantyl)-5-(2-fluorophenyl)-1-methylpyrrole-2-carboxamide] | < 100 nM | < 100 nM | 98% | 96% | – | –
NC(=O)[C@]12CC3CC(C1)[C@@H](NC(=O)c1ccc(-c4cccc(Cl)c4)o1)C(C3)C2 [Example 26, N-(5-carbamoyl-2-adamantyl)-5-(3-chlorophenyl)furan-2-carboxamide] | < 100 nM | < 100 nM | 71% | 47% | – | –
CCCOc1cccc2ccc(C(=O)N[C@H]3C4CC5CC3C[C@](C(N)=O)(C5)C4)nc12 [Example 49, N-(5-carbamoyl-2-adamantyl)-8-propoxyquinoline-2-carboxamide] | < 100 nM | 100 to 500 nM | – | – | – | –
Cn1c(C(=O)N[C@H]2C3CC4CC2C[C@](C(N)=O)(C4)C3)ccc1-c1ccccc1Cl [Example 38, N-(5-carbamoyl-2-adamantyl)-5-(2-chlorophenyl)-1-methylpyrrole-2-carboxamide] | < 100 nM | < 100 nM | 98% | 98% | – | –
Cn1c(C(=O)N[C@H]2C3CC4CC2C[C@](C(N)=O)(C4)C3)ccc1-c1ccc(Cl)cc1 [Example 35, N-(5-carbamoyl-2-adamantyl)-5-(4-chlorophenyl)-1-methylpyrrole-2-carboxamide] | < 100 nM | 100 to 500 nM | – | – | – | –
NC(=O)[C@]12CC3CC(C1)[C@@H](NC(=O)c1ccc(-c4ccc(Cl)c(Cl)c4)o1)C(C3)C2 [Example 31, N-(5-carbamoyl-2-adamantyl)-5-(3,4-dichlorophenyl)furan-2-carboxamide] | < 100 nM | 100 to 500 nM | – | – | – | –
CCCNc1cccc(C(=O)N[C@H]2C3CC4CC2C[C@](C(N)=O)(C4)C3)n1 [Example 60, N-(5-carbamoyl-2-adamantyl)-6-(propylamino)pyridine-2-carboxamide] | < 100 nM | < 100 nM | – | – | – | –
CN(C)c1cccc(C(=O)N[C@H]2C3CC4CC2C[C@](C(N)=O)(C4)C3)[n+]1[O-] [Example 65, N-(5-carbamoyl-2-adamantyl)-6-(dimethylamino)-1-oxidopyridin-1-ium-2-carboxamide] | < 100 nM | 100 to 500 nM | – | – | – | –
Cc1ccc(-c2ccc(C(=O)N[C@H]3C4CC5CC3C[C@](C(N)=O)(C5)C4)o2)cc1 [Example 4, N-(5-carbamoyl-2-adamantyl)-5-(4-methylphenyl)furan-2-carboxamide] | < 100 nM | 100 to 500 nM | – | – | – | –
CN(C)c1cccc(C(=O)N[C@H]2C3CC4CC2C[C@](C(N)=O)(C4)C3)n1 [Example 57, N-(5-carbamoyl-2-adamantyl)-6-(dimethylamino)pyridine-2-carboxamide] | < 100 nM | < 100 nM | – | – | – | –
Cc1csc(C(=O)N[C@H]2C3CC4CC2C[C@](C(N)=O)(C4)C3)c1 [Example 23, N-(5-carbamoyl-2-adamantyl)-4-methylthiophene-2-carboxamide] | 100 to 500 nM | 100 to 500 nM | – | – | – | –
Cc1cccc(C(=O)N[C@H]2C3CC4CC2C[C@](C(N)=O)(C4)C3)n1 [Example 15, N-(5-carbamoyl-2-adamantyl)-6-methylpyridine-2-carboxamide] | < 100 nM | 100 to 500 nM | – | – | – | –
NC(=O)[C@]12CC3CC(C1)[C@@H](NC(=O)c1ccc(-c4cc(Cl)cc(Cl)c4)o1)C(C3)C2 [Example 32, N-(5-carbamoyl-2-adamantyl)-5-(3,5-dichlorophenyl)furan-2-carboxamide] | < 100 nM | 100 to 500 nM | – | – | – | –
NC(=O)[C@]12CC3CC(C1)[C@@H](NC(=O)c1ccccn1)C(C3)C2 [Example 16, N-(5-carbamoyl-2-adamantyl)pyridine-2-carboxamide] | > 500 nM | > 500 nM | – | – | – | –
NC(=O)[C@]12CC3CC(C1)[C@@H](NC(=O)c1ccc(-c4cccc(Cl)c4)s1)C(C3)C2 [Example 42, N-(5-carbamoyl-2-adamantyl)-5-(3-chlorophenyl)thiophene-2-carboxamide] | < 100 nM | < 100 nM | – | – | – | –
NC(=O)[C@]12CC3CC(C1)[C@@H](NC(=O)c1cccs1)C(C3)C2 [Example 22, N-(5-carbamoyl-2-adamantyl)thiophene-2-carboxamide] | 100 to 500 nM | > 500 nM | – | – | – | –
CC(C)Oc1cccc2ccc(C(=O)N[C@H]3C4CC5CC3C[C@](C(N)=O)(C5)C4)nc12 [Example 52, N-(5-carbamoyl-2-adamantyl)-8-propan-2-yloxyquinoline-2-carboxamide] | < 100 nM | 100 to 500 nM | – | – | – | –
